# In patent US20240398783A1, “Compounds and Pharmaceutical Compositions Comprising Inhibitors of Amyloid Peptide Interactions with Glycosaminoglycans, Methods of Treatment and Use Thereof” (Gismo Therapeutics, Inc., priority 2021, published 2024):
# Counter-ions that a name gives are not always drawn.
# Target: Alpha-Synuclein Protofibril binding to heparin (HS-GAG) (Homo sapiens, UniProt P37840)
# Test: Inhibition of alpha-synuclein protofibril binding to immobilized heparin-BSA (ELISA)
# Parameters: species or system porcine
# Conditions: 30 μM compound; alpha-synuclein protofibrils, heparin-BSA; read-out: Alpha-Synuclein/Heparin Activity (% inhibition class)
# Protocol: Porcine intestinal mucosa heparin conjugated to Bovine Serum Albumin (Heparin-BSA) was prepared as described (Najjam, S. et al. 1997, Cytokine 12, 1013-1022). Heparin is a sulfated HS-GAG and is commonly used as a HS-GAG in biochemical and binding assays (Lindahl, U. and Kjellen, L. (2013) ibid). Heparin-BSA at 0.01 mg/ml in Phosphate Buffered Saline (PBS; pH 7.4) was added to a 96 well polystyrene ELISA plate (NUNC Cat. No. 449824; 100 μl per well) and incubated Over Night (ON) at 4 degrees Celsius. For negative controls, ELISA plates were coated with BSA instead of Heparin-BSA, using the same procedure. Following the incubation, the plate was washed consecutively, by immersion, with de-ionized water and PBS (pH 7.4). The ELISA plate was then blocked with nonfat milk (2%, 200 μl per well) for 2 hours at Room Temperature (RT) with gentle shaking. Following blocking, the plate was washed with de-ionized water then PBS (pH 7.4). GBAPs were dissolved and diluted in PBS (pH 6.5, supplemented with 0.1% BSA) at desired concentrations, added to the ELISA plates containing immobilized Heparin-BSA (100 μl per well) and incubated for 2 hours at RT with gentle shaking. Following incubation, the plate was washed with de-ionized water and three times with PBS (pH 6.5) plus Tween. Bound GBAP was detected by a monoclonal antibody specific for that GBAP, followed by incubation with secondary antibody conjugated to horseradish peroxidase (HRP). Antibody was diluted in PBS (pH 6.5 supplemented with 1% BSA). Following each incubation with antibody, the plate was washed with de-ionized water and three times with PBS (pH 6.5) wash buffer containing 0.1% Tween. The peroxidase substrate chromogen, TMB (Dako Cat. No. S1599) was added (100 μl per well) to the ELISA plate and incubated at room temperature. After 5 minutes ELISA Stop Solution (hydrochloric acid 1N, sulfuric acid 3N) was added (100 μl per well) to stop the peroxidase catalyzed colorimetric reaction. The Optical Density of the samples was measured at 450 nm using an ELISA plate reader (BioTek Synergy H1). Following color development, the % inhibition compared to control (BSA-coated plates) was determined. IC-50s were calculated using GraphPad Prism software.
# The assay was performed as described in Example 43, with the following modifications. Following to coating the plates with Heparin-BSA, plates were washed as described. The compounds were dissolved in DMSO at 10 mM final concentration and further diluted prior to assay. DMSO concentration in the screening well was up to […]. Individual compounds were co-incubated with alpha-synuclein on plates containing immobilized heparin. Alpha-synuclein purchased from rPeptide (Cat. No. S1001) was used to prepare protofibrils as described in Ihse et al., 2017. Alpha-synuclein was dissolved in PBS (pH7.4) to a concentration of 140 μM (˜2 mg/ml), and incubated for 7 days at 37° C. with rotary agitation (400 rpm). Resulting fibrils were sonicated for 10 minutes in ultrasonic water bath, quickly frozen and kept in aliquots at −80 degrees Celsius. Protofibrillar alpha-synuclein diluted in PBS (pH 6.5, supplemented with BSA, 0.1%) was added to the ELISA plate (100 μl per well) and incubated for 2 hours at RT with gentle shaking. Following the incubation, the plate was washed with de-ionized water and three times with PBS (pH 6.5) plus Tween. Bound Alpha-synuclein was detected by Anti-Alpha-synuclein Monoclonal Antibody 211 (Santa Cruz Cat. No. sc-12767), followed by secondary anti-IgG antibody conjugated to HRP (R&D System, Cat. No. HAF007). Following to color development with TMB, as described in Example 43, the Optical Density of the samples was measured at 450 nm using an ELISA plate reader. Following color development, the % inhibition compared to control (no compound, DMSO control) for every compound was determined.
# An example of inhibition curve is shown in FIG. 1 for Inhibitor Compounds 22 and 24. […]
row,Structure (SMILES),inhibition at 30 µM [%]
1,"C[N+](C)(C)Cc1ccc(/C=N\Nc2ccnc3ccc(Cl)cc23)cc1 [Compound 4, (Z)-1-(4-((2-(6-chloroquinolin-4-yl)hydrazineylidene)methyl)phenyl)—N,N,N-trimethylmethanaminium iodide]",> 30
2,"Fc1ccc2c(N/N=C/c3ccc(CN4CCOCC4)cc3)ccnc2c1 [Compound 6, (E)-4-(4-((2-(7-fluoroquinolin-4-yl)hydrazono)methyl)benzyl)morpholine]",> 30
3,"C[n+]1ccc(/C=N\Nc2ccnc3ccccc23)cc1 [Compound 9, (Z)-1-methyl-4-((2-(quinolin-4-yl)hydrazono)methyl)pyridin-1-ium iodide]",< 30
4,"O=S1(=O)CCN(Cc2ccc(/C=N/Nc3ccnc4cc(F)ccc34)cc2)CC1 [Compound 10, (E)-4-(4-((2-(7-fluoroquinolin-4-yl)hydrazono)methyl)benzyl)thiomorpholine 1,1-dioxide]",< 30

# Same assay, conditions: Alpha-Synuclein/Heparin Activity (IC-50), alpha-synuclein protofibrils, heparin-BSA
row,Structure (SMILES),IC50 [µM]
1,"Clc1ccc2c(N/N=C/c3ccc(-n4cccn4)cc3)ccnc2c1 [Compound 3, (E)-4-((E)-(4-(1H-pyrazol-1-yl)benzylidene)hydrazono)-7-chloro-1,4-dihydroquinoline]",1.7
2,"CN1CCN(Cc2ccc(/C=N/Nc3ccnc4cc(Cl)ccc34)cc2)CC1 [Compound 7, (E)-7-chloro-4-(2-(4-((4-methylpiperazin-1-yl)methyl)benzylidene)hydrazinyl)quinolone]",1.41
3,"COc1cc2nccc(N/N=C/c3ccc(-n4ccnc4)c(OC)c3)c2cc1OC [Compound 13, (E)-4-(2-(4-(1H-imidazol-1-yl)-3-methoxybenzylidene)hydrazineyl)-6,7-dimethoxyquinoline phosphate]",35.2
4,"Clc1ccc2c(N/N=C/c3ccc(-n4ccnc4)nc3)ccnc2c1 [Compound 14, (E)-4-(2-((6-(1H-imidazol-1-yl)pyridin-3-yl)methylene)hydrazineyl)-7-chloroquinoline hydrochloride]",2.02
5,"Cc1ncn(-c2ccc(/C=N\Nc3ncnc4cc(Cl)ccc34)cn2)c1C [Compound 15, 7-chloro-4-(2-((6-(4,5-dimethyl-1H-imidazol-1-yl)pyridin-3-yl)methylene)hydrazineyl)quinazoline hydrochloride]",5.22
6,"C/C(=N\Nc1ncnc2cc(Cl)ccc12)c1ccc(-n2cnc(C)c2C)nc1 [Compound 16, 7-chloro-4-(2-(1-(6-(4,5-dimethyl-1H-imidazol-1-yl)pyridin-3-yl)ethylidene)hydrazineyl)quinazoline phosphate]",3.21
7,"C/C(=N\Nc1ncnc2cc(Cl)ccc12)c1ccc(-n2cc[n+](C)c2)nc1 [Compound 17, (E)-1-(5-(1-(2-(7-chloroquinazolin-4-yl)hydrazineylidene)ethyl)pyridin-2-yl)-3-methyl-1H-imidazol-3-ium iodide phosphoric acid salt]",13.5
8,"CC(=NNc1ccnc2cc(Cl)ccc12)c1ccc(-n2cnc(C)c2C)nc1 [Compound 22, 7-chloro-4-(2-(1-(6-(4,5-dimethyl-1H-imidazol-1-yl)pyridin-3-yl)ethylidene)hydrazineyl)quinoline]",2.87
9,"Cc1ncn(-c2ccc(Nc3ncnc4cc(Cl)ccc34)cn2)c1C [Compound 25, 7-chloro-N-(6-(4,5-dimethyl-1H-imidazol-1-yl)pyridin-3-yl)quinazolin-4-amine]",3.83

# Same assay, conditions: alpha-synuclein protofibrils, heparin-BSA; read-out: Alpha-Synuclein/Heparin Activity (IC-50)
row,Structure (SMILES),IC50 [µM]
1,"Cc1cc(-n2ccnc2)ccc1/C=N/Nc1ccnc2cc(Cl)ccc12 [Compound 1, (E)-4-((E)-(4-(1H-imidazol-1-yl)-2-methylbenzylidene)hydrazono)-7-chloro-1,4-dihydroquinoline]",3.19
2,"C/C(=N\Nc1ncnc2cc(Cl)ccc12)c1ccc(-n2cc(C)nc2C)nc1 [Compound 18, (E)-7-chloro-4-(2-(1-(6-(2,4-dimethyl-1H-imidazol-1-yl)pyridin-3-yl)ethylidene)hydrazineyl)quinazoline phosphoric acid salt]",1.71
3,"C/C(=N\Nc1ncnc2cc(F)ccc12)c1ccc(-n2cnc(C)c2C)nc1 [Compound 21, (E)-4-(2-(1-(6-(4,5-dimethyl-1H-imidazol-1-yl)pyridin-3-yl)ethylidene)hydrazineyl)-7-fluoroquinazoline]",2.06
4,"C/C(=N\Nc1nncc2cc(Cl)ccc12)c1ccc(-n2cc(C)nc2C)nc1 [Compound 24, (E)-6-chloro-1-(2-(1-(6-(2,4-dimethyl-1H-imidazol-1-yl)pyridin-3-yl)ethylidene)hydrazineyl)phthalazine]",6.44
5,"C/C(=N\Nc1ncnc2cc(Cl)ccc12)c1ccc(-n2cc(C)nc2C)nc1 [Compound 27, (E)-7-chloro-4-(2-(1-(6-(2,4-dimethyl-1H-imidazol-1-yl)pyridin-3-yl)ethylidene)hydrazineyl)quinazoline hydrochloride]",1.95

# Same assay, conditions: read-out: Alpha-Synuclein/Heparin Activity (% inhibition class)
row,Structure (SMILES),inhibition at 30 µM [%]
1,"Cc1ncn(-c2ccc(/C=N/Nc3ccnc4cc(Cl)ccc34)cc2)c1C [Compound 2, (E)-7-chloro-4-((E)-(4-(4,5-dimethyl-1H-imidazol-1-yl)benzylidene)hydrazono)-1,4-dihydroquinoline]",< 30
2,"Fc1ccc2c(N/N=C/c3ccc(-n4ccnc4)cc3)ccnc2c1 [Compound 5, (E)-4-(2-(4-(1H-imidazol-1-yl)benzylidene)hydrazinyl)-7-fluoroquinoline]",< 30
3,"C(=N\Nc1ccc2c3c(cccc13)CC2)/c1ccc(-n2ccnc2)cc1 [Compound 8, (E)-1-(4-((2-(1,2-dihydroacenaphthylen-5-yl)hydrazineylidene)methyl)phenyl)-1H-imidazole]",< 30
4,"COc1cc2nccc(NN=Cc3ccc(-n4ccnc4)c(C)c3)c2cc1OC [Compound 11, 4-(2-(4-(1H-imidazol-1-yl)-3-methylbenzylidene)hydrazineyl)-6,7-dimethoxyquinoline hydrochloride]",< 30
5,"COc1ccc2c(NN=Cc3ccc(-n4ccnc4)c(C)c3)ccnc2c1 [Compound 12, 4-(2-(4-(1H-imidazol-1-yl)-3-methylbenzylidene)hydrazineyl)-7-methoxyquinoline]",< 30
6,"C/C(=N\Nc1ncnc2ccccc12)c1ccc(-n2cc(C)nc2C)nc1 [Compound 19, (E)-4-(2-(1-(6-(2,4-dimethyl-1H-imidazol-1-yl)pyridin-3-yl)ethylidene)hydrazineyl)quinazoline]",< 30
7,"CN1CCN(c2cc(Nc3ccnc4cc(Cl)ccc34)ccn2)CC1 [Compound 20, 7-chloro-N-(2-(4-methylpiperazin-1-yl)pyridin-4-yl)quinolin-4-amine]",< 30
8,"CC(=NNc1ccnc2cc(Cl)ccc12)c1ccc(-n2cc[n+](C)c2)nc1 [Compound 23, 1-(5-(1-(2-(7-chloroquinolin-4-yl)hydrazineylidene)ethyl)pyridin-2-yl)-3-methyl-1H-imidazol-3-ium iodide]",< 30
9,"C/C(=N\Nc1ncnc2cc(F)ccc12)c1ccc(-n2cc[n+](C)c2)nc1 [Compound 26, (E)-1-(5-(1-(2-(7-fluoroquinazolin-4-yl)hydrazineylidene)ethyl)pyridin-2-yl)-3-methyl-1H-imidazol-3-ium phosphoric acid salt]",> 30
